Reference: publication PMC6349869, “The palladacycle complex AJ-5 induces apoptotic cell death while reducing autophagic flux in rhabdomyosarcoma cells” (Cell Death Discovery, 2019)

Tests used:
[1] = tested on: RD cells; experiment: MTT cell viability assay, RD; format: cell-based, human; settings: RD (eRMS), 48 h
Procedure: (§1) RH30 human aRMS cells (kindly provided by Associate Professor Judith Davie, Southern Illinois University), AX-OH-1 human aRMS and FL-OH-1 human eRMS cells (kindly provided by Professor Stefan Bath, University of Cape Town) were cultured in Roswell Park Memorial Institute Medium (RPMI)-1640 (Sigma Aldrich, Missouri, USA). […] Cell morphology was monitored using an Olympus CKX41 inverted microscope (MSAC Ltd, UK) and imaged with an EVOS™ XL AMEX1000 Core Imaging System (Thermo Fisher Scientific, Massachusetts, USA).
(§2) Cells were seeded in 96-well plates and treated the next day with a range of AJ-5 concentrations (0.1–1.0 μM) or vehicle ([…]) for 48 h. Cell viability was measured using the 3-(4,5-dimethylthiazol-2-yl)-2,5-diphenyl-trazolium bromide (MTT) assay (11465007001; Sigma Aldrich) according to the manufacturer’s instructions. Mean cell viability was calculated as a percentage of the mean vehicle control. At least three independent experiments in quadruplicate were performed from which the half maximal inhibitory concentration (IC50) was determined using GraphPad Prism version 6.0 (GraphPad Software, California, USA). The selectivity index (SI) was determined by dividing the IC50 of a normal cell line by the IC50 of a cancer cell line.

[2] = tested on: SW1353 cells; experiment: MTT cell viability assay, SW1353 chondrosarcoma; format: cell-based, human; settings: 48 h
Procedure: as §1, §2

[3] = tested on: SW1353, SW872, SW982, HT1080 and MG-63 cells; experiment: Clonogenic assay, sarcoma subtypes; format: cell-based, human; settings: ¼ IC50, 24 h, all sarcoma subtypes
Procedure: Cells were seeded in 6-well plates and treated the following day with IC50, ½ IC50, ¼ IC50 AJ-5 and vehicle. After 24 h, 800–4000 cells were seeded in 35 mm dishes in drug-free medium. Formation of colonies were monitored and after 7–21 days cells were fixed with 3:1 methanol:acetic acid and stained with 0.5% crystal violet (Sigma Aldrich) in 100% methanol. Colonies were imaged and percentage colony area was determined using ImageJ v1.50i[58] and the plugin ColonyArea[59]. Colony area was determined for each drug concentration and expressed as a percentage of vehicletreated control.
Fig. S2 AJ-5 is cytotoxic in a range of sarcoma subtypes. […] Graphs show mean cell viability as a percentage of vehicle control ± SEM for each concentration of AJ-5 determined from three independent experiments performed in quadruplicate. […] (B) Selectivity indices (SIs) were determined for each cell line by dividing the IC50 of each non-malignant cell line (Fig. 1C) including normal fibroblast cell lines (FG0 and DMB) and mesenchymal stem cell line (A10021501) by the IC50 of each sarcoma cell line. […] Colonies were stained with crystal violet and images from three independent repeats were quantified using the ImageJ plugin ColonyArea. […] Data was analysed using GraphPad Prism 6.0 and a parametric unpaired t-test was performed *p<0.05, **p<0.01, ***p<0.001.

[4] = tested on: phosphorylated RIP3 and MLKL; experiment: Western blot of necroptosis markers (preliminary, data not shown); format: cell-based

For `CC(C)c1cccc(C(C)C)c1[N+]1=Cc2cccc[c]2[Pd-2]1([Cl])[P+](CC[P+](c1ccccc1)(c1ccccc1)[Pd-2]1([Cl])[c]2ccccc2C=[N+]1c1c(C(C)C)cccc1C(C)C)(c1ccccc1)c1ccccc1` (centres unmarked) [AJ-5], which IC50 [1] is on record?
Its IC50 is at most 200 nM.

What about the IC50 [2] of the same molecule?
Its IC50 is under 300 nM.

What about the “Ability of sarcoma cells to survive and proliferate (colony area)” value [3] of the same molecule?
Its value is “significantly reduced”.

What about the “Active (phosphorylated) MLKL” value [4] of the same molecule?
The value was “increased levels”.

And the “Phosphorylated RIP3” value [4]?
Its value is “increase”.
